Assay results as given in US8241842B2, “Methods and devices for measuring diffusion by magnetic resonance imaging” (California Institute of Technology, priority 2003, dated 2012).
Values joined by “and” are separate entries in the source; they are usually repeats but may differ in a detail not shown here. Equal values may be shown once. Read-outs that look alike come from different tables or passages of the source. One block for each molecule: values may come before it.

Experiments:
[1] = MRI of gadolinium chelate diffusion across a membrane (Example 3, FIG. 5); format: physicochemical; settings: exponential fit to signal difference between chambers; upper chamber initially 1 mM gadolinium chelate, lower chamber water
Experimental: FIGS. 5A-5C provide the results of experiments on gadolinium chelate-concentration related signal changes in two chambers. (a) MR image of the membrane cell with the upper chamber initially containing 1 mM gadolinium chelate (Prohance® (gadoteridol), Bracco Diagnostics Inc., Princeton N.J.) and the lower chamber containing water. Signal enhancement due to the gadolinium chelate can be indicated by red false coloring. (b) the mean signal time course within the regions of interest indicated by black boxes in (a). The signal difference between the chambers has been fitted to an exponential and has a time-constant of approximately 158 minutes. The concentration time course in each chamber would require signal-concentration calibration. […] This effect would not be readily detected by non-imaging methods.
Gadolinium chelates of various molecular weights (e.g. […]) may be used as MR detectable tracers which alter the T1 relaxation time of the surrounding water and thus imparts contrast to the image. […] If the upper chamber is initially filled with a dilute aqueous solution of the chelate, and the lower chamber is filled with water, the diffusional permeability of the membrane may be estimated from the time course of either (a) the mean signal within each chamber or (b) the spatial variation of chelate above and below the membrane as determined by calibrated MR images. […]

[2] = from mean signal ratio between chambers; one saturated with oxygen, the other with argon; 0.4 μm polycarbonate film
Text: (§1) This sample assembly is then inserted in the upper circular recess of the membrane cell base. The membrane cell washer is then placed over the sample assembly and the membrane cell cap screwed onto the base, tightening the washer onto the sample assembly. The upper central well in the membrane cell cap is then filled with inert gas (e.g. argon or nitrogen) saturated aqueous solution and sample placed in the magnetic resonance imaging system.
(§2) Sequential T1-weighted magnetic resonance images are acquired of a midline slice through the membrane cell, parallel to the long-axis of the cell.
(§3) The generalized exponential decay to equilibrium in two chamber system, including systematic drift function F(t) is given by: SA(t)=F(t)[SA(∞)+(SA(0)−SA(∞))e^−t/Tc] SB(t)=F(t)[SB(∞)+(SB(∞)−SB(0))e^−t/Tc] Taking the ration of the two signals eliminates the systematic drift allowing the time-constant for the transport across the membrane to be determined from the MRI signal time-course, as follows:
The dividing membrane was 0.4 μm pore-size polycarbonate film.

[3] = from mean signal ratio between chambers; one saturated with oxygen, the other with argon; fresh Bruch's membrane
Text: as §1, §2
as §3, with “follows: […]” for “follows:”

[4] = MRI of D2O/H2O exchange across a membrane in the membrane cell (Example 1A, FIG. 1); format: physicochemical; settings: Water/D2O chamber signal ratio vs time, best fit exponential; one chamber initially D2O, the other H2O
Text: D2O gives no signal in conventional 1H MRI, and thus acts as a negative marker. The diffusional permeability can then be calculated from the signal time-course using conventional mass transport equations assuming that signal intensity is proportional to water concentration.
FIG. 1 provides the results of experiments on D2O-concentration related signal changes in two chambers, one initially containing D2O, the other with H2O.

[5] = MRI of D2O/H2O exchange across a membrane in the membrane cell (Example 1B, FIG. 2); format: physicochemical; settings: signal difference between chambers over 64 minutes; upper chamber deuterium oxide saline, lower water saline; 12 micron pore-size polycarbonate membrane
Text: A 5 mm diameter membrane tissue sample is mounted between two layers of 125 micron pore-size nylon mesh. The tissue sample assembly is then mounted in the central recess of the cell base and the cell cap is tightened onto the base using three M2.5 nylon screws. O-rings mounted into the cap and base prevent fluid leakage between the upper and lower central chambers. The central well of the base is filled with water or saline water with the cell inverted. The base well is then sealed with impermeable adhesive tape. The central well of the upper chamber is filled with deuterium oxide (D2O) or D2O saline and sealed with impermeable adhesive tape as before.
D2O gives no signal in conventional ^1H MRI, and thus acts as a negative marker. The diffusional permeability can then be calculated from either the mean signal time-courses in the upper and lower chambers using conventional mass transport equations assuming that signal intensity is proportional to water concentration.
FIG. 2 provides the results of experiments on D2O-concentration related signal changes in two chambers, one initially containing D2O, the other with H2O. Cross-sectional T1-weighted magnetic resonance image through the membrane cell during permeability testing of a single layer of 12 micron pore-size polycarbonate membrane. Images at (a) time=0 minutes and (b) 64 minutes are shown. Images were acquired every 256 seconds. […]

Compound: CC(O)CN1CCN(CC(=O)[O-])CCN(CC(=O)[O-])CCN(CC(=O)[O-])CC1.[Gd+3] (centres unmarked) [Prohance, gadoteridol]
time-constant [1]: approximately 158 minutes

time-constant [2]: 59.8 min and 54.9 min
time-constant [3]: 67.7 min
Compound: O=O [oxygen]

time constant for the exchange [4]: approximately 17.3 minutes
time-constant of the fitted exponential decay (index of membrane permeability) [5]: 40.7 min
Compound: [2H]O[2H] [D2O, deuterium oxide]
